Test results reported in article PMC4727773, “Design, Synthesis, and Biological Evaluation of New 2-Phenyl-4H-chromen-4-one Derivatives as Selective Cyclooxygenase-2 Inhibitors” (Scientia Pharmaceutica, 2014).

How the values were obtained:
ovine COX-2 = target: T1, ovine COX-2 (Ovis aries, UniProt P79208); test: In vitro ovine COX-2 enzyme inhibition (chemiluminescent enzyme assay kit, Cayman); assay type: biochemical; conditions: for Selectivity index (SI): In vitro COX-2 selectivity index (COX-1 IC50/COX-2 IC50); for IC50: ovine COX-1/COX-2 assay kit, means of two determinations, deviation < 10% of the mean
T1 construct: purchased Cayman Chemical, Ann Arbor, MI, USA
T1 sequence (P79208 17-603): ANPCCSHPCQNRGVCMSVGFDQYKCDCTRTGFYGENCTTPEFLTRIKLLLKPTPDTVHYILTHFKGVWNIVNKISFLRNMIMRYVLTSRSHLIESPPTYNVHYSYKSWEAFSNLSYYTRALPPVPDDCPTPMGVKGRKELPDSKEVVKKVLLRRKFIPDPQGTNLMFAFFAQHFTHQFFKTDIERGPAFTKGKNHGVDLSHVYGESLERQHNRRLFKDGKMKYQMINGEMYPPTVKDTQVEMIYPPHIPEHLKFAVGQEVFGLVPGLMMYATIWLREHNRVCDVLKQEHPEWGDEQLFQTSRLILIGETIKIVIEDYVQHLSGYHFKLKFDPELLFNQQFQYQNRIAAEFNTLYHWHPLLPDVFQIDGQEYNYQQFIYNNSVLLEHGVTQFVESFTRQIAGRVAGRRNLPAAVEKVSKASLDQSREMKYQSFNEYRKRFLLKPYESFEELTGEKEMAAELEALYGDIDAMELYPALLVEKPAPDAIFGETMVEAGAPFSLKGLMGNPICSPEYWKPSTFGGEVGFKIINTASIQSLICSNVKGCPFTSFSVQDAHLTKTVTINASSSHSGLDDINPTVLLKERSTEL
Procedure: (§1) The ability of the test compounds listed in Table 1 to inhibit ovine COX-1 and COX-2 (IC50 value, μM) was determined using the chemiluminescent enzyme assay kit (Cayman Chemical, Ann Arbor, MI, USA) according to our previously reported method.

ovine COX-1 = target: T2, ovine COX-1 (Ovis aries, UniProt P05979); test: In vitro ovine COX-1 enzyme inhibition (chemiluminescent enzyme assay kit, Cayman); assay type: biochemical; conditions: ovine COX-1/COX-2 assay kit; means of two determinations, deviation < 10% of the mean
T2 construct: purchased Cayman Chemical, Ann Arbor, MI, USA
T2 sequence (P05979 25-600): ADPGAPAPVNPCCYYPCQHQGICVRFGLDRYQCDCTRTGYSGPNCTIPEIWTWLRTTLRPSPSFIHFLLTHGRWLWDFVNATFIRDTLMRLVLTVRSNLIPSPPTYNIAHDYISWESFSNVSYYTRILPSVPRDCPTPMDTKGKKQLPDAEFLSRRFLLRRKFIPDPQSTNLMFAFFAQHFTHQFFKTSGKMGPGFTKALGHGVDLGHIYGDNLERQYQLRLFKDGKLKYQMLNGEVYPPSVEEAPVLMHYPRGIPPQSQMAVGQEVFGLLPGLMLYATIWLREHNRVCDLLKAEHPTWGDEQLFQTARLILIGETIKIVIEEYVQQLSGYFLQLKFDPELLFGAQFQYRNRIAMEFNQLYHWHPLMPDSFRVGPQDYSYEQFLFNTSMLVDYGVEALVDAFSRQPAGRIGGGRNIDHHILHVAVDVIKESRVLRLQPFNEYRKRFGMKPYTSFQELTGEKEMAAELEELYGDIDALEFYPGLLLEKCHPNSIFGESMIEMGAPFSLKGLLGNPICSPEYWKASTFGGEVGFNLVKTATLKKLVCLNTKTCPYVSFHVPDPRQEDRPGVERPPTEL
Procedure: as §1

SMILES: CCOc1c(-c2ccc(S(C)(=O)=O)cc2)oc2ccccc2c1=O [Compound 5b, 3-Ethoxy-2-[4-(methylsulfonyl)phenyl]-4H-chromen-4-one]
- melting point: 137 to 138 °C
- Selectivity index (SI) (ovine COX-2): 149.1
- IC50 (ovine COX-2): 0.09 µM
- IC50 (ovine COX-1): 13.4 µM

SMILES: CS(=O)(=O)c1ccc(-c2oc3ccccc3c(=O)c2O)cc1 [Compound 4, 3-Hydroxy-2-[4-(methylsulfonyl)phenyl]-4H-chromen-4-one]
- melting point: 198 to 199 °C
- Selectivity index (SI) (ovine COX-2): 75.3
- IC50 (ovine COX-2): 0.13 µM
- IC50 (ovine COX-1): 9.79 µM

SMILES: CS(=O)(=O)c1ccc(-c2oc3ccccc3c(=O)c2OCc2ccccc2)cc1 [Compound 5d, 3-(Benzyloxy)-2-[4-(methylsulfonyl)phenyl]-4H-chromen-4-one]
- melting point: 140 to 142 °C
- Selectivity index (SI) (ovine COX-2): 287.1
- IC50 (ovine COX-2): 0.07 µM
- IC50 (ovine COX-1): 20.1 µM

SMILES: CC(=O)Oc1c(-c2ccc(S(C)(=O)=O)cc2)oc2ccccc2c1=O [Compound 6, 2-[4-(Methylsulfonyl)phenyl]-4-oxo-4H-chromen-3-yl acetate]
- melting point: 175 °C
- Selectivity index (SI) (ovine COX-2): 195.6
- IC50 (ovine COX-2): 0.08 µM
- IC50 (ovine COX-1): 15.6 µM

SMILES: C=CCOc1c(-c2ccc(S(C)(=O)=O)cc2)oc2ccccc2c1=O [Compound 5c, 3-(Allyloxy)-2-[4-(methylsulfonyl)phenyl]-4H-chromen-4-one]
- melting point: 116 to 118 °C
- Selectivity index (SI) (ovine COX-2): 173.1
- IC50 (ovine COX-2): 0.08 µM
- IC50 (ovine COX-1): 13.8 µM

SMILES: CS(=O)(=O)c1ccc(-c2cc(=O)c3ccccc3o2)cc1 [Compound 3, 2-[4-(Methylsulfonyl)phenyl]-4H-chromen-4-one]
- melting point: 187 °C
- Selectivity index (SI) (ovine COX-2): 98.2
- IC50 (ovine COX-2): 0.11 µM
- IC50 (ovine COX-1): 10.8 µM

SMILES: COc1c(-c2ccc(S(C)(=O)=O)cc2)oc2ccccc2c1=O [Compound 5a, 3-Methoxy-2-[4-(methylsulfonyl)phenyl]-4H-chromen-4-one]
- melting point: 92 to 93 °C
- Selectivity index (SI) (ovine COX-2): 126.5
- IC50 (ovine COX-2): 0.1 µM
- IC50 (ovine COX-1): 12.7 µM
